Experimental data taken from ChEMBL document CHEMBL1137231, “Efficient evaluation of binding free energy using continuum electrostatics solvation” (J Med Chem, 2004).
Numbered stars: 1 amine (or outer) side, 2 acyl side, 3 side chain; on linkers, the order of the positions; unused ones are H or OH. Square brackets hold non-standard residues; d marks the D form. Peptide text beside a SMILES is read from it. * marks the point of attachment. Hexanoyl(5S-NH,4S-OH,6-Ph) = O=C(CC[C@H](O)[C@H](Cc1ccccc1)N[*:1])[*:2]; X3 = O=C([C@H](Cc1ccccc1)C[C@H](O)[C@H](Cc1ccccc1)N[*:1])[*:2]; X4 = CC(C)C[C@H](C[C@H](O)[C@H](Cc1ccccc1)N[*:1])C(=O)[*:2]; X1 = CCC[C@H](C[C@H](O)[C@H](Cc1ccccc1)N[*:1])C(=O)[*:2]; X2 = C[C@H](C[C@H](O)[C@H](Cc1ccccc1)N[*:1])C(=O)[*:2]; Cbz = O=C(OCc1ccccc1)*

Experiments:
[1] = target: Human immunodeficiency virus type 1 protease (Human immunodeficiency virus 1, UniProt Q72874); test: Binding affinity towards human immunodeficiency virus type 1 protease determined using continuum electrostatics solvation
Beta-secretase 1 = Beta-secretase 1 (Homo sapiens, UniProt P56817); test: Binding affinity towards Beta-secretase determined using continuum electrostatics solvation
Beta-secretase 1, sequence (P56817 whole entry): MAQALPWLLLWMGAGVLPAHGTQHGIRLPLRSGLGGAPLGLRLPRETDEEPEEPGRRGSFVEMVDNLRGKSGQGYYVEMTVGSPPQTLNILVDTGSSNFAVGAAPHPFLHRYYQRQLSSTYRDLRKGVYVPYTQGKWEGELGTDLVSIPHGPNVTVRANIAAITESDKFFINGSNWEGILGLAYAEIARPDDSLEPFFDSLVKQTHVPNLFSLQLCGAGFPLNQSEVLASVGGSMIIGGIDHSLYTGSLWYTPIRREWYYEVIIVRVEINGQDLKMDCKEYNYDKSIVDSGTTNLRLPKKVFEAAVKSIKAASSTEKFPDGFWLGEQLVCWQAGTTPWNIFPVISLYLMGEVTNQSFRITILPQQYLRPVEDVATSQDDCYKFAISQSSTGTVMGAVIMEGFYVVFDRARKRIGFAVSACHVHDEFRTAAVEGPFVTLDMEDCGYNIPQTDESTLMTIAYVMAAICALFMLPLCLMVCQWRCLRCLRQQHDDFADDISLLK

Row | SMILES | Ki [1] | Ki (Beta-secretase 1)
1 | CC(NC(=O)OCc1ccccc1)C(=O)NC(Cc1ccccc1)[C@@H](O)CCC(=O)NC(C(N)=O)C(C)C (some centres undefined) | 2500 nM | –
2 | COC(=O)C(NC(=O)C(NC(=O)[C@H](CC(C)C)C[C@H](O)C(Cc1ccccc1)NC(=O)C(C)NC(=O)OCc1ccccc1)C(C)C)C(C)C (some centres undefined) | 0.9 nM | –
3 | CCC[C@H](C[C@H](O)C(Cc1ccccc1)NC(=O)OC(C)(C)C)C(=O)NC(C(N)=O)C(C)C (some centres undefined) | 50 nM | –
4 | CC(NC(=O)OCc1ccccc1)C(=O)NC(Cc1ccccc1)[C@@H](O)C[C@@H](C)C(=O)NC(C(N)=O)C(C)C (some centres undefined) | 50 nM | –
5 | CC(NC(=O)OCc1ccccc1)C(=O)NC(Cc1ccccc1)[C@@H](O)C[C@@H](Cc1ccccc1)C(=O)NC(C(N)=O)C(C)C (some centres undefined) | 0.6 nM | –
6 | CC(C)C[C@H](NC(=O)[C@@H](NC(=O)OC(C)(C)C)C(N)=O)C(O)CC(C)C(=O)N[C@@H](C)C(=O)NCc1ccccc1 (some centres undefined) | – | 22400 nM
7 | CSCCC(NC(=O)[C@@H](NC(=O)OC(C)(C)C)C(C)C)C(=O)N[C@@H](CC(C)C)C(O)CC(C)C(=O)N[C@H](C(=O)NCc1ccccc1)C(C)C (some centres undefined) | – | 2.5 nM
8 | COC(=O)C(NC(=O)C(NC(=O)[C@H](Cc1ccccc1)C[C@H](O)C(Cc1ccccc1)NC(=O)C(C)NC(=O)OCc1ccccc1)C(C)C)C(C)C (some centres undefined) | 0.6 nM | –
9 | COC(=O)C(NC(=O)C(NC(=O)[C@H](C)C[C@H](O)C(Cc1ccccc1)NC(=O)C(C)NC(=O)OCc1ccccc1)C(C)C)C(C)C (some centres undefined) | 1.6 nM | –
10 | CC(C)C[C@H](C[C@H](O)C(Cc1ccccc1)NC(=O)C(C)NC(=O)OCc1ccccc1)C(=O)NC(C(N)=O)C(C)C (some centres undefined) | 3.9 nM | –
11 | CC(C)C(NC(=O)[C@H](C)C[C@H](O)C(Cc1ccccc1)NC(=O)OC(C)(C)C)C(N)=O (some centres undefined) | 260 nM | –
12 | CC(C)C[C@H](NC(=O)[C@@H](NC(=O)OC(C)(C)C)C(N)=O)C(O)CC(C)C(=O)N[C@H](C(=O)NCc1ccccc1)C(C)C (some centres undefined) | – | 3130 nM
13 | CC(C)C[C@H](C[C@H](O)C(Cc1ccccc1)NC(=O)OC(C)(C)C)C(=O)NC(C(N)=O)C(C)C (some centres undefined) | 23 nM | –
14 | CC(C)C[C@H](NC(=O)C(NC(=O)[C@@H](NC(=O)OC(C)(C)C)C(C)C)C(N)=O)C(O)CC(C)C(=O)N[C@H](C(=O)NCc1ccccc1)C(C)C (some centres undefined) | – | 5.9 nM
15 | CC(C)C[C@H](NC(=O)C(CS(C)(=O)=O)NC(=O)[C@@H](NC(=O)OC(C)(C)C)C(C)C)C(O)CC(C)C(=O)N[C@H](C(=O)NCc1ccccc1)C(C)C (some centres undefined) | – | 9.4 nM
16 | CC(C)C[C@H](NC(=O)C(NC(=O)[C@@H](NC(=O)OC(C)(C)C)C(C)C)C(N)=O)C(O)CC(C)C(=O)N[C@@H](C)C(=O)NCc1ccccc1 (some centres undefined) | – | 61.4 nM
17 | CC(C)C(NC(=O)CC[C@H](O)C(Cc1ccccc1)NC(=O)OC(C)(C)C)C(N)=O (some centres undefined) | 6500 nM | –

Row | SMILES | Ki [1] | Ki (Beta-secretase 1)
18 | COC(=O)C(NC(=O)C(NC(=O)CC[C@H](O)C(Cc1ccccc1)NC(=O)C(C)NC(=O)OCc1ccccc1)C(C)C)C(C)C (some centres undefined) | 118 nM | –
19 | CSCCC(NC(=O)OC(C)(C)C)C(=O)N[C@@H](CC(C)C)C(O)CC(C)C(=O)N[C@H](C(=O)NCc1ccccc1)C(C)C (some centres undefined) | – | 58.8 nM
20 | CC(C)C[C@H](NC(=O)[C@H](CS(C)(=O)=O)NC(=O)OC(C)(C)C)C(O)CC(C)C(=O)N[C@H](C(=O)NCc1ccccc1)C(C)C (some centres undefined) | – | 1130 nM
21 | CCC[C@H](C[C@H](O)C(Cc1ccccc1)NC(=O)C(C)NC(=O)OCc1ccccc1)C(=O)NC(C(=O)NC(C(=O)OC)C(C)C)C(C)C (some centres undefined) | 0.6 nM | –
22 | CC(C)C[C@H](NC(=O)[C@@H](N)CCC(=O)O)C(=O)N[C@@H](CC(=O)O)C(=O)N[C@@H](CC(C)C)C(=O)C(O)CN[C@@H](C)C(=O)N[C@H](C(=O)N[C@@H](CCC(=O)O)C(=O)N[C@@H](Cc1ccccc1)C(=O)O)C(C)C (some centres undefined) | – | 0.3 nM
23 | CSCC(NC(=O)[C@@H](NC(=O)OC(C)(C)C)C(C)C)C(=O)N[C@@H](CC(C)C)C(O)CC(C)C(=O)N[C@H](C(=O)NCc1ccccc1)C(C)C (some centres undefined) | – | 50.1 nM
24 | CC(C)C(NC(=O)[C@H](Cc1ccccc1)C[C@H](O)C(Cc1ccccc1)NC(=O)OC(C)(C)C)C(N)=O (some centres undefined) | 1.4 nM | –
25 | CCC[C@H](C[C@H](O)C(Cc1ccccc1)NC(=O)C(C)NC(=O)OCc1ccccc1)C(=O)NC(C(N)=O)C(C)C (some centres undefined) | 20 nM | –
26 | COC(=O)[C@@H](NC(=O)[C@@H](NC(=O)CC[C@H](O)[C@H](Cc1ccccc1)NC(=O)[C@H](C)NC(=O)[C@H](C)NC(=O)OCc1ccccc1)C(C)C)C(C)C (Cbz-AA[Hexanoyl(5S-NH,4S-OH,6-Ph)]VV-OMe) | 44 nM | –
27 | CCC[C@H](C[C@H](O)[C@H](Cc1ccccc1)NC(=O)[C@H](C)NC(=O)[C@H](C)NC(=O)OCc1ccccc1)C(=O)N[C@H](C(=O)N[C@H](C(=O)OC)C(C)C)C(C)C (Cbz-AA[X1]VV-OMe) | 0.4 nM | –
28 | COC(=O)[C@@H](NC(=O)[C@@H](NC(=O)[C@H](C)C[C@H](O)[C@H](Cc1ccccc1)NC(=O)[C@H](C)NC(=O)[C@H](C)NC(=O)OCc1ccccc1)C(C)C)C(C)C (Cbz-AA[X2]VV-OMe) | 0.6 nM | –
29 | COC(=O)[C@@H](NC(=O)[C@@H](NC(=O)[C@H](Cc1ccccc1)C[C@H](O)[C@H](Cc1ccccc1)NC(=O)[C@H](C)NC(=O)[C@H](C)NC(=O)OCc1ccccc1)C(C)C)C(C)C (Cbz-AA[X3]VV-OMe) | 0.4 nM | –
30 | COC(=O)[C@@H](NC(=O)[C@@H](NC(=O)[C@H](CC(C)C)C[C@H](O)[C@H](Cc1ccccc1)NC(=O)[C@H](C)NC(=O)[C@H](C)NC(=O)OCc1ccccc1)C(C)C)C(C)C (Cbz-AA[X4]VV-OMe) | 0.8 nM | –
31 | COC(=O)[C@@H](NC(=O)[C@@H](NC(=O)CC[C@H](O)[C@H](Cc1ccccc1)NC(=O)[C@H](C)NC(=O)[C@H](C)N)C(C)C)C(C)C (H-AA[Hexanoyl(5S-NH,4S-OH,6-Ph)]VV-OMe) | 4 nM | –
32 | CCC[C@H](C[C@H](O)[C@H](Cc1ccccc1)NC(=O)[C@H](C)NC(=O)[C@H](C)N)C(=O)N[C@H](C(=O)N[C@H](C(=O)OC)C(C)C)C(C)C (H-AA[X1]VV-OMe) | 1.2 nM | –
33 | COC(=O)[C@@H](NC(=O)[C@@H](NC(=O)[C@H](C)C[C@H](O)[C@H](Cc1ccccc1)NC(=O)[C@H](C)NC(=O)[C@H](C)N)C(C)C)C(C)C (H-AA[X2]VV-OMe) | 3 nM | –
34 | COC(=O)[C@@H](NC(=O)[C@@H](NC(=O)[C@H](CC(C)C)C[C@H](O)[C@H](Cc1ccccc1)NC(=O)[C@H](C)NC(=O)[C@H](C)N)C(C)C)C(C)C (H-AA[X4]VV-OMe) | 0.6 nM | –
